The source of these data is ChEMBL document CHEMBL1135986, “Corrigendum to Synthesis and anti-angiogenic activity of 6-(1,2,4-thiadiazol-5-yl)-3-amino pyridazine derivatives [Bioorg. Med. Chem. Lett. 12 (2002) 589]” (Bioorg Med Chem Lett, 2002).

A short description of series [1]: Ocular toxicity was assessed after oral dosing at 40 mg/Kg b.i.d. for 4 days in male Wistar rats; Yes. The following applies: rat, in vivo, 96 h.
In another series the test system is Mus musculus. Put plainly: In vivo percentage inhibition of 3LL Lewis Lung tumor mets formation were measured after oral dosing b.i.d. for 28 days to B6D2F1 mice at a dose of 15 mg/kg b.i.d. The format is functional. As to conditions: 672 h.
The nature of series [2]: Ocular toxicity was assessed after oral dosing at 40 mg/Kg b.i.d. for 4 days in male Wistar rats; No. As to conditions: rat, in vivo, 96 h.
The nature of series [3]: Ocular toxicity was assessed after oral dosing at 40 mg/Kg b.i.d. for 4 days in male Wistar rats; Very weak. As to conditions: rat, in vivo, 96 h.

Regarding `Cc1nsc(-c2ccc(N3CCN(c4cc(C(F)(F)F)cc(C(F)(F)F)c4)CC3)nn2)n1`, the Eye toxicity entry in series [1] is on record as “Yes”.

`FC(F)(F)c1cccc(NC2CCN(c3ccc(-c4ncns4)nn3)CC2)c1`: the inhibition in vivo at 15 mg/kg in the series on Mus musculus worked out at 42%. Moreover, in series [2], the Eye toxicity entry is on record as “No toxicity”.

With `CNc1nsc(-c2ccc(N3CCN(c4cccc(C(F)(F)F)c4)CC3)nn2)n1`, the Eye toxicity entry in series [2] was “No toxicity”.

For the molecule `Cc1nsc(-c2ccc(N3CCN(c4cccc(C(F)(F)F)c4)CC3)nn2)n1`, the Eye toxicity entry in series [1] is given as “Toxicity”.

`Cc1nsc(-c2ccc(N3CCN(c4cccc(C(F)(F)F)c4)CC3)nc2)n1`: in series [2], the Eye toxicity entry is “No toxicity”.

Molecule `FC(F)(F)c1cccc(N2CCN(C3CCN(c4ccc(-c5ncns5)nn4)CC3)CC2)c1` gave an inhibition in vivo at 15 mg/kg in the series with Mus musculus of 54%. Moreover, the Eye toxicity entry in series [2] is listed as “No toxicity”.

For the molecule `Cc1nsc(-c2ccc(N3CCN(c4cc(Cl)cc(Cl)c4)CC3)nn2)n1`, the Eye toxicity result in series [1] is given as “Yes”.

With `CN(C)c1nsc(-c2ccc(N3CCN(c4cc(C(F)(F)F)cc(C(F)(F)F)c4)CC3)nn2)n1`, testing at 15 mg/kg with Mus musculus gave an inhibition in vivo of 13%. Further, the Eye toxicity result in series [2] was “No toxicity”.

Turning to `Cc1nsc(-c2ccc(N3CCN(c4cccc(Cl)c4)CC3)nn2)n1`, in series [1], the Eye toxicity result is recorded as “Yes”.

As to `FC(F)(F)c1cc(N2CCN(c3ccc(-c4ncns4)nn3)CC2)cc(C(F)(F)F)c1`, in the series with Mus musculus, at 15 mg/kg the inhibition in vivo was 24%. Moreover, the Eye toxicity result in series [2] is given as “No toxicity”.

Turning to `CN(C)c1nsc(-c2ccc(N3CCC(N4CCN(c5cccc(C(F)(F)F)c5)CC4)CC3)nn2)n1`, testing at 15 mg/kg in the series on Mus musculus gave an inhibition in vivo of 25%. In series [3], the Eye toxicity result is listed as “Very weak toxicity”.

Regarding `Cc1nsc(-c2nccc(N3CCN(c4cccc(C(F)(F)F)c4)CC3)n2)n1`, the Eye toxicity result in series [2] was “No toxicity”.

Take `FC(F)(F)c1cccc(N2CCN(c3ccc(-c4ncns4)nn3)CC2)c1`: the Eye toxicity entry in series [2] is reported as “No toxicity”.

Consider `Cc1nsc(-c2ccc(N3CCN(c4cccc(C(F)(F)F)c4)CC3)cc2)n1`, for which the Eye toxicity entry in series [2] is reported as “No toxicity”.

Regarding `Cc1nsc(-c2ccc(N3CCN(c4cccc([N+](=O)[O-])c4)CC3)nn2)n1`, the Eye toxicity entry in series [1] is “Yes”.

In the series with Mus musculus, `CN(C)c1nsc(-c2ccc(N3CCN(c4cccc(C(F)(F)F)c4)CC3)nn2)n1` returned an inhibition in vivo at 15 mg/kg of 39%. Further, in series [2], the Eye toxicity entry is given as “No toxicity”.

Take `CCc1nsc(-c2ccc(N3CCN(c4cccc(C(F)(F)F)c4)CC3)nn2)n1`: the Eye toxicity entry in series [2] was “No toxicity”.

On to `Cc1nsc(-c2ccc(N3CCN(c4ccccc4C(F)(F)F)CC3)nn2)n1`, for which the Eye toxicity result in series [1] is reported as “Yes”.

`Nc1nsc(-c2ccc(N3CCN(c4cccc(C(F)(F)F)c4)CC3)nn2)n1`: the Eye toxicity entry in series [2] is “No toxicity”.

Usually inhibition in vivo stands for the relative decrease from the control value, in per cent. A lower inhibition in vivo goes with a response near the control.
